Test results from article PMC3454513 (Nature structural & molecular biology, 2012).

B1: PHF20 Tudor2 (amino acids 84–147), disulfide cross-linked homodimer (domain or fragment, human, UniProt Q9BVI0 84-147, looked up)
chain: SSEFQINEQVLACWSDCRFYPAKVTAVNKDGTYTVKFYDGVVQTVKHIHVKAFSKDQNIVGNAR
modifications: disulfide bonds between Cys96 and Cys100 of subunit A and Cys100 and Cys96 of subunit B

Key:
[1] = test system: p53; assay: Immunoblot of p53 phosphorylated at Ser15, HCT 116 cells; type: cell-based, human; conditions: 10 μM doxorubicin or 100 μM etoposide for 4 h
[2] = test system: PHF20 Tudor2 and Tudor1-2; type: binding, human; conditions: peptide array (Supplementary Fig. 1)
[3] = target: the molecule itself; assay: mass spectrometry

Molecule | interaction with PHF20 among the four known methylated forms of p53 [2] | also measured
COc1cccc2c1C(=O)c1c(O)c3c(c(O)c1C2=O)C[C@@](O)(C(=O)CO)C[C@@H]3O[C@H]1C[C@H](N)[C@H](O)[C@H](C)O1 [doxorubicin] | – | phosphorylation of p53 at Ser15 [1]: induced phosphorylation of p53 at Ser15
p53K370me2: Cy3-labeled 18-amino acid p53 peptide dimethylated at Lys370 | strongest interaction | –
p53K382me2: Cy3-labeled 18-amino acid p53 peptide dimethylated at Lys382 | strongest interaction | –
B1 | – | stoichiometry N [3]: 2
